As usually defined, the IC50 is the concentration needed to halve the response being measured. A higher IC50 goes with weaker potency in that assay.

The values that follow come from patent US8846636B2, “Nucleoside analogues with quaternary carbon stereogenic centers and methods of use” (LCB Pharma Inc., priority 2008, dated 2014).

Holding throughout (assay type): cell-based
Test [1] concerns ZR-75-1. The test is described as follows: MTT cell proliferation assay, ZR-75-1. Conditions: Homo sapiens; ZR-75-1 cell line (mammary gland; breast). The protocol:
(§1) The antiviral and antitumor activities of the compounds of the invention were evaluated by a cellular proliferation assay. The MTT [3-(4,5-dimethylthiazol-2-yl)-2,5-diphenyltetrazolium bromide] assay, first described by Mosmann (Mosmann T., “Rapid colorimetric assay for cellular growth and survival: application to proliferation and cytotoxicity assays,” J. Immunol. Methods 1983 Dec. 16; 65(1-2):55-63, and incorporated by reference in its entirety) is based on the ability of a mitochondrial dehydrogenase enzyme from viable cells to cleave the tetrazolium rings of the pale yellow MTT. The cleavage reaction form a dark blue formazan crystals which is largely impermeable to cell membranes and accumulation within healthy cells. Solubilisation of the cells by the addition of a detergent liberates and solubilizes the crystals. The number of surviving cells is directly proportional to the level of the formazan product created. The color can then be quantified using a simple colorimetric assay. The results can be read on a multiwell scanning spectrophotometer (ELISA reader).
(§2) In Tables 1 and 2, IC50 values are presented for various cell lines in micromolar units (μm), “Gemci” is Gemcitabine, and “5-FU” is 5-fluorouracil.
(In general: Tetrazolium assays rely on reduction of a dye to a coloured formazan, in cell work by metabolically active cells.)

Test [2] relates to NCI H1395. Put plainly: MTT cell proliferation assay, NCI H1395. The settings on record: Homo sapiens, NCI-H1395, NCI H1395 cell line (lung). How it is done:
as §1, §2

Test [3] concerns HL-60. The test is described as follows: MTT cell proliferation assay, HL-60. The settings on record: Homo sapiens; HL-60 cell line (acute promyelocytic leukemia). How it is done: as §1, §2
Test [4] relates to MOLT-4. The test is described as follows: MTT cell proliferation assay, MOLT-4. The settings on record: Homo sapiens, MOLT-4, MOLT-4 cell line (acute lymphoblastic leukemia). The protocol: as §1, §2
Test [5] concerns 1A6. Put plainly: MTT cell proliferation assay, 1A6. The settings on record: 1A6 cell line (urinary bladder). The protocol: as §1, §2
The subject of test [6] is DLD-1. The test is described as follows: MTT cell proliferation assay, DLD-1. Conditions: Homo sapiens; DLD-1 cell line (colon). The protocol:
as §1, §2

For test [7], the system named is NCI H2052. The test is described as follows: MTT cell proliferation assay, NCI H2052. Conditions: Homo sapiens; NCI H2052 cell line (tumor stage 4 derived from pleural effusion). How it is done: as §1, §2
Test [8] deals with MCF7. The test is described as follows: MTT cell proliferation assay, MCF7. Conditions: Homo sapiens; MCF7 cell line (mammary gland; breast). How it is done:
as §1, §2

The test system of test [9] is 786-O. Put plainly: MTT cell proliferation assay, 786-O. Conditions: Homo sapiens, 786-0; 786-O cell line (kidney). The protocol: as §1, §2
The test system of test [10] is PFSK-1. The test is described as follows: MTT cell proliferation assay, PFSK-1. The settings on record: Homo sapiens; PFSK-1 cell line (brain). How it is done:
as §1, §2

The subject of test [11] is HCC1143. The test is described as follows: MTT cell proliferation assay, HCC1143. The settings on record: Homo sapiens; HCC1143 cell line (mammary gland; breast). How it is done: as §1, §2
Test [12] has as its system Colo 829. The test is described as follows: MTT cell proliferation assay, Colo 829. The settings on record: Homo sapiens; Colo 829 cell line (skin). The protocol: as §1, §2
For test [13], the system named is BxPC-3. The test is described as follows: MTT cell proliferation assay, BxPC-3. Conditions: Homo sapiens; BxPC-3 cell line (pancreas). The protocol:
as §1, §2

Test [14] has as its system 22Rv1. Put plainly: MTT cell proliferation assay, 22Rv1. Conditions: Homo sapiens; 22Rv1 cell line (prostate). How it is done: as §1, §2
Test [15] has as its system OVCAR3. Put plainly: MTT cell proliferation assay, OVCAR3. The settings on record: Homo sapiens, OVCAR-3; OVCAR3 cell line (ovary). How it is done: as §1, §2
Test [16] relates to HCT 116. Put plainly: MTT cell proliferation assay, HCT 116. The settings on record: Homo sapiens; HCT 116 cell line (colon). How it is done:
as §1, §2

With `CC1(CO)C(O)C(n2cc(F)c(N)nc2=O)O[C@@H]1CO` (stereo partly drawn) [LCB-1082, 4-amino-5-fluoro-1-((2S,3S,4S,5S)-3-hydroxy-4,5-bis(hydroxymethyl)-4-methyltetrahydrofuran-2-yl)pyrimidin-2(1H)-one; 4-amino-5-fluoro-1-((2R,3R,4S,5S)-3-hydroxy-4,5-bis(hydroxymethyl)-4-methyltetrahydrofuran-2-yl)pyrimidin-2(1H)-one], the IC50 in [1], in test [2], in test [3], in test [4], in [5] and in test [6] was more than 500 µM in each case. In addition, the IC50 in test [7], in test [8], in test [9], in test [10], in [11] and in [12] was more than 500 µM each time.
As for `O=c1[nH]cc(F)c(=O)[nH]1` [5-FU, 5-fluorouracil, reference compound], the concentration for half-maximal inhibition (IC50) in [1] is more than 500 µM; in [13], 220 µM; in test [14], 50 µM; in test [2] it was more than 500 µM; in test [3] it was 25 µM; in test [4], 20 µM. Besides, the IC50 in test [5] is 300 µM; in test [6], 470 µM; in [7] it was more than 500 µM; in test [8], 40 µM; in test [9] it was 110 µM; in [10] it was 460 µM. Further, the IC50 in test [15] worked out at 35 µM; in [11] it was 340 µM; in [12], 170 µM; in test [16] it was 25 µM.
Consider `C[C@]1(C(=O)NN)[C@@H](CO)O[C@@H](n2cc(F)c(N)nc2=O)[C@@H]1O` [LCB-1085, (2S,3R,4R,5R)-5-(4-amino-5-fluoro-2-oxopyrimidin-1(2H)-yl)-4-hydroxy-2-(hydroxymethyl)-3-methyltetrahydrofuran-3-carbohydrazide], for which the IC50 in test [1] is more than 100 µM; in test [13], more than 100 µM; in [14] it was more than 100 µM; in [2], more than 100 µM; in test [3] it was more than 100 µM; in test [4], 80 µM. Also, the IC50 in test [5], in test [6], in test [7], in test [8], in test [9] and in test [10] was more than 100 µM in each case. The IC50 in [15], in [11], in test [12] and in test [16] was more than 100 µM each time.
Turning to `CC1(CO)C(O)C(n2cnc3c(N)nc(Cl)nc32)O[C@@H]1CO` (stereo in doubt) [LCB-1091, ((2S,3R,4R,5R)-5-(6-amino-2-chloro-9H-purin-9-yl)-4-hydroxy-3-methyltetrahydrofuran-2,3-diyl)dimethanol], the IC50 in test [1], in test [13], in test [14], in test [2], in test [3] and in test [4] was more than 500 µM each time. The IC50 in test [5], in test [6], in test [7], in [8], in test [9] and in test [10] was more than 500 µM in each case. Moreover, the IC50 in test [15], in [11], in test [12] and in test [16] was more than 500 µM throughout.
Take `C[C@]1(C(N)=O)[C@H](O)[C@@H](n2ccc(N)nc2=O)O[C@@H]1CO` [LCB-1087, (2S,3S,4S,5S)-5-(4-amino-2-oxopyrimidin-1(2H)-yl)-4-hydroxy-2-(hydroxymethyl)-3-methyltetrahydrofuran-3-carboxamide]: the IC50 in test [1], in test [13], in [14], in test [2], in test [3] and in [4] was more than 500 µM each time. The IC50 in test [5], in test [6], in [8], in [9], in [10] and in [15] was more than 500 µM throughout. Also, the IC50 in test [11], in [12] and in test [16] was more than 500 µM throughout.
Regarding `CC12C(=O)OC[C@H]1O[C@@H](n1cc(F)c(N)nc1=O)C2O` (mixture of isomers) [LCB-1080, 4-amino-5-fluoro-1-((2R,3R,3αR,6αS)-3-hydroxy-3α-methyl-4-oxohexahydrofuro[3,4-β]furan-2-yl)pyrimidin-2(1H)-one], the IC50 in test [1], in test [2], in test [3], in test [4], in test [5] and in test [6] was more than 500 µM each time. In addition, the IC50 in test [7], in [8], in test [9], in [10], in test [11] and in [12] was more than 500 µM each time.
As for `C[C@]1(CO)C(O)[C@H](n2ccc(N)nc2=O)O[C@@H]1CO` (stereo partly shown) [compound 1056], the IC50 is more than 500 µM in test [1]; more than 500 µM in test [13]; 440 µM in [2]; more than 500 µM in test [3]; more than 500 µM in test [5]; more than 500 µM in test [6]. Moreover, the IC50 in test [7], in test [8], in test [9], in test [10], in test [15] and in [11] was more than 500 µM each time. For the same molecule, the IC50 in test [12] and in test [16] was more than 500 µM throughout.
On to `CCOC(=O)C1(C)[C@@H](CO)O[C@H](n2cnc3c(NN)nc(NN)nc32)[C@@H]1O` (stereo partly shown) [LCB-1086], for which the IC50 in test [1] is more than 100 µM; in test [13], 90 µM; in test [14], more than 100 µM; in test [2], more than 100 µM; in test [3] it was more than 100 µM; in test [4], more than 100 µM. Further, the IC50 in test [5] was more than 100 µM; in [6], more than 100 µM; in [8], more than 100 µM; in test [9], more than 100 µM; in test [10], 98 µM; in test [15], more than 100 µM. Further, the IC50 in test [11], in test [12] and in [16] was more than 100 µM in each case.
Take `CC12C(=O)OC[C@H]1O[C@@H](n1ccc(N)nc1=O)C2O` (mixture of isomers) [LCB-1079, 4-amino-1-((2R,3R,3αR,6αS)-3-hydroxy-3α-methyl-4-oxohexahydrofuro[3,4-β]furan-2-yl)pyrimidin-2(1H)-one]: the IC50 in test [1] is 380 µM; in [13], 160 µM; in test [2] it was more than 500 µM; in test [3], 250 µM; in [4], 260 µM; in test [5], 350 µM. Also, the IC50 in test [6] turned out to be 440 µM; in [7] it was 310 µM; in [8], 280 µM; in [9], 460 µM; in test [10], 130 µM; in [15], 280 µM. Moreover, the IC50 came out at 480 µM in [11] and 410 µM in [16].
